From patent publication US8735388B2, “Heterocyclic compounds with affinity to muscarinic receptors” (Abbvie B. V. A., priority 2007, dated 2014)

Assays:
[1] = biological target: T1, Muscarine M3 (GPCR-A-MA-ACH M3) (Homo sapiens, UniProt P20309); assay: Muscarine M3 receptor binding; details: human M3, CHO cells; receptor binding
T1 construct: expressed in transfected cells; host or cells: CHO cells

[2] = biological target: T2, Muscarine M2 (GPCR-A-MA-ACH M2) (Homo sapiens, UniProt P08172); assay: Muscarine M2 receptor binding; details: human M2, CHO cells; receptor binding
T2 construct: expressed in transfected cells; host or cells: CHO cells
T2 sequence (P08172 1-466): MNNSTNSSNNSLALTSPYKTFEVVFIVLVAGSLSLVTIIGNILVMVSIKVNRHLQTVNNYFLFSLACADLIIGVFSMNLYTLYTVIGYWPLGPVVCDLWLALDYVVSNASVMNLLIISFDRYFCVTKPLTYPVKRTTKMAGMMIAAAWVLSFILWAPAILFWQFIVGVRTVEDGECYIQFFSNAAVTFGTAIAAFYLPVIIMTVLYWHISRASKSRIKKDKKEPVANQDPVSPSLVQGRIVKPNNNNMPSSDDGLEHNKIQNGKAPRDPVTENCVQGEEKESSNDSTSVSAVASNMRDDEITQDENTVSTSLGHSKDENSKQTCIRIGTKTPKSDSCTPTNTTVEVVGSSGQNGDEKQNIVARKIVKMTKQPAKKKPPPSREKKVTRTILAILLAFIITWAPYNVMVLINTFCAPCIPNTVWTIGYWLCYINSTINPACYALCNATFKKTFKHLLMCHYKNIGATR

[3] = biological target: T3, Muscarine M4 (GPCR-A-MA-ACH M4) (Homo sapiens, UniProt P08173); assay: Muscarine M4 cell-based functional assay (CHO cells, Ca2+ - Aequorin luminescence); details: human M4, CHO cells; agonist mode, reference agonist oxotremorine; read-out: Cell funct. Musc. M4 Agonism pEC50 (converted)
T3 construct: expressed in transfected cells; host or cells: CHO cells
T3 sequence (P08173 1-479): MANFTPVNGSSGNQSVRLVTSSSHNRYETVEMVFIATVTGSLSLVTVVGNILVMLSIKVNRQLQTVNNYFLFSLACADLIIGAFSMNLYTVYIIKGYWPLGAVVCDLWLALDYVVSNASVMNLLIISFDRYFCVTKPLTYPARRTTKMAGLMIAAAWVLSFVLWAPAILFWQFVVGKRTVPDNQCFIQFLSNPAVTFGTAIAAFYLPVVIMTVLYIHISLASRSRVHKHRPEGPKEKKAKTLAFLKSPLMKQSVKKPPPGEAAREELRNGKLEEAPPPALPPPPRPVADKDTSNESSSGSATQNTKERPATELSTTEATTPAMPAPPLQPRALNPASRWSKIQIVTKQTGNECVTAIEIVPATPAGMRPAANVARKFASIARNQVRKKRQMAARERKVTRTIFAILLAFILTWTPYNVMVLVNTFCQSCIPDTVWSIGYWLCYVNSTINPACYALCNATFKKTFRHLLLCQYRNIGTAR
Procedure, shortened: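 CHO cells expressing human M4 were exposed to compound, with Ca2+ response read by aequorin luminescence. Compounds were first tested at 1 μM, then at 10-fold lower concentrations if active; stimulation or inhibition was relative to the reference agonist. EC50/IC50 came from Hill-equation fits.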

[4] = biological target: T4, Muscarine M1 (GPCR-A-MA-ACH M1) (Homo sapiens, UniProt P11229); assay: Muscarine M1 cell-based functional assay (CHO cells, Ca2+ - FLIPR Fluorimetry); details: human M1, CHO cells; agonist mode, reference agonist acetylcholine; read-out: Cell funct. Musc. M1 Agonism pEC50 (converted)
T4 construct: expressed in transfected cells; host or cells: CHO cells
T4 sequence (P11229 1-460): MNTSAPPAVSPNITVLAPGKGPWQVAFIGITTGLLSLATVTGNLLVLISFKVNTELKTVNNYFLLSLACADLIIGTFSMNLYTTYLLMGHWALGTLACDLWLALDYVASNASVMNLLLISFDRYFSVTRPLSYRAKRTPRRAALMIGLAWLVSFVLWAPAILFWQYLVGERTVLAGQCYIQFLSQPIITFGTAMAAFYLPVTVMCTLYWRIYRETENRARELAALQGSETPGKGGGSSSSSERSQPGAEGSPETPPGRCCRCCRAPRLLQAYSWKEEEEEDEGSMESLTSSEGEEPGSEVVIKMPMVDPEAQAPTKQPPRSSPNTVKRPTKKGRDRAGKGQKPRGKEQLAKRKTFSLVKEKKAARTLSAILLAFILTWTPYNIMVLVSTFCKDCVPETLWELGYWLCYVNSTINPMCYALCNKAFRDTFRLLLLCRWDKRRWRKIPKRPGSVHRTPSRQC

[5] = biological target: T3, Muscarine M4 (GPCR-A-MA-ACH M4); assay: Muscarine M4 receptor binding, 3H-Oxotremorine; details: human M4, CHO cells; receptor binding, ligand 6 nM, 30 min/25° C.; read-out: RB Musc. M4 3H-Oxotremorine pKi (converted)
Procedure, shortened: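 Human M1 ([3H]-pirenzepine), M3, and M4 ([3H]-4DAMP or [3H]-oxotremorine) receptor preparations incubated with radioligand and compound, first at 10 μM, then at 10-fold lower concentrations if inhibition exceeded 40%. Bound ligand separated by glass-fibre filtration and counted by scintillation. IC50 from Hill fit, converted to Ki via Cheng-Prusoff, reported as pKi.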

T1 sequence (P20309 whole entry): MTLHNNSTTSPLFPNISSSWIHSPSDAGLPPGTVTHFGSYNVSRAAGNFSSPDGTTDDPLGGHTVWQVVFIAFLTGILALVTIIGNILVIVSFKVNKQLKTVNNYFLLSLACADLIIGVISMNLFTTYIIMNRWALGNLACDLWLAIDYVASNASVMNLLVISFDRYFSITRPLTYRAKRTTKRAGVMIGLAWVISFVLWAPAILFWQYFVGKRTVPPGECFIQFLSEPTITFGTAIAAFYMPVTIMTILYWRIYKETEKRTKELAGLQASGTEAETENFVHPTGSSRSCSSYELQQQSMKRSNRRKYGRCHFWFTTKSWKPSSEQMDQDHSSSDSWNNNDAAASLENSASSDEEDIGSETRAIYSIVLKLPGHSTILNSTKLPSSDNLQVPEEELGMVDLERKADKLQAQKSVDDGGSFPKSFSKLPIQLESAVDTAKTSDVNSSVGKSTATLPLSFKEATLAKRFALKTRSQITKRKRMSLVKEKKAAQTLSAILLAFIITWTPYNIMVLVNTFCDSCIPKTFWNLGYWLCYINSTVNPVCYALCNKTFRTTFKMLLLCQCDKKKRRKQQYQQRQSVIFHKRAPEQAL

SMILES	Ki [1] [nM]	Ki [2] [nM]	EC50 [3] [nM]	EC50 [4] [nM]	Ki [5] [nM]
C=CCCCSc1c[nH]nc1C1=CCCN(C)C1 [Compound 22L]	316	2000	63.1	10	63.1
CN1CCC=C(c2n[nH]cc2SCCC=C(F)F)C1 [Compound 22J, 3-[4-(4,4-Difluoro-but-3enylsulfanyl)-1H-pyrazol-3-yl]-1,2,5,6-tetrahydro-1-methylpyridine]	316	3160	251	39.8	63.1
CCOCCSc1c[nH]nc1C1=CCCN(C)C1 [Compound 22O, 3-[4-(2-Ethoxy-ethylsulfanyl)-1H-pyrazol-3-yl]-1,2,5,6-tetrahydro-1-methylpyridine]	2510	10000	631	31.6	398
C=CCCCOc1c[nH]nc1C1=CCCN(C)C1 [Compound 33F, 3-(4-Pent-4-enyloxy-1H-pyrazol-3-yl)-1,2,5,6-tetrahydro-1-methylpyridine]	1000	5010	794	39.8	316
CCCCCOc1c[nH]nc1C1=CCCN(C)C1 [Compound 33G, 3-(4-Pentyloxy-1H-pyrazol-3-yl)-1,2,5,6-tetrahydro-1-methylpyridine]	794	3980	631	25.1	126
